Test results reported in US9610232B2, “Use of sphinganine to improve the visual appearance of skin and hair” (EVONIK DEGUSSA GMBH, priority 2011, dated 2017).

Tests used:
stem cell markers = assay: Gene expression studies in cell cultures; format: cell-based
Source text: A further subject matter of the present invention is consequently the cosmetic use of sphinganine for modulating stem cell markers.

hair grease production = assay: Human scalp health study: hair tonic applied to scalp, greasiness by subjective evaluation and Sebutape method; format: in vivo; conditions: hair tonic with 0.2% sphinganine, 3 mL to scalp twice daily, 4 months; vehicle control; 16 subjects per group
Procedure: The panel comprised 32 subjects (mixed male/female, minimum age 30, with a tendency for greasy scalp/greasy hair), with 16 subjects in each case applying a hair tonic with 0.2% sphinganine or without sphinganine (vehicle control). The application phase comprised 4 months, with the hair tonic being applied to the scalp twice daily (morning and evening) with the help of a pipette with a defined volume of 3 mL, and gently massaged in using the hands. The test parameters included the shine of the hair and the greasiness of the scalp. The greasiness of the scalp is carried out firstly by means of a subjective evaluation (self and expert estimation), and secondly by means of a “Sebutape” method in accordance with manufacturers instructions. Time points for carrying out the measurements were before the start of application, after two months and after four months.

[1] = system: sebum production of the skin; assay: Human sebum study: skin sebum on the forehead measured with Sebumeter SM 815; format: in vivo; conditions: lotion with 0.1% sphinganine, topical to forehead twice daily, 28 days (T4 vs T0); compared to the starting value and to the vehicle group; 14 female subjects
Procedure: The panel comprised 30 female subjects aged 21-45 years, with 14 subjects applying a lotion containing 0.1% sphinganine and 16 subjects applying a lotion without sphinganine (vehicle control).
The application phase comprised 28 days, with application taking place twice daily (morning and evening) to the forehead.
The skin sebum was measured using a Sebumeter SM 815® from Courage+Khazaka electronic GmbH, Cologne, Germany. The measurements were taken in the middle of the forehead in the region of the glabella lines. The average value calculated from the individual values of three repeat measurements was registered. On the evening before each measurement no formulation was applied. Three hours before the measurement, the forehead was cleaned using a wipe (babylove sensitive wipes, dm-drogerie markt, Karlsruhe, Germany). The measurements were carried out in each case at a time of day defined individually for each subject in the period between 12:00 and 14:30 hours. The sebum value at time point T0 before the application phase and T4 after 28 days was determined.

## CCCCCCCCCCCCCCC[C@@H](O)[C@@H](N)CO [sphinganine]
Stem cell markers
  expression of stem cell markers: beneficially modulated the expression of so-called stem cell markers
Hair grease production
  hair grease production: significant reduction in hair grease production
[1]
  sebum production: statistically significant reduction in sebum production
